From patent US7005447B2, “Food product comprising hydroxymatairesinol” (Hormos Nutraceutical Oy Ltd., priority 1999, dated 2006)
Like-named read-outs stand apart in the source and are kept apart here.

What was measured:
[1] = test system: tert-butylhydroperoxide-induced lipid peroxidation (t-BuOOH-LP) in rat liver microsomes; test: Inhibition of tert-butylhydroperoxide-induced lipid peroxidation (t-BuOOH-LP), chemiluminescence; format: biochemical
Description: Inhibition of lipid peroxidation was evaluated on the basis of their potency to inhibit tert-butylhydroperoxide-induced lipid peroxidation (t-BuOOH-LP) in rat liver microsomes in vitro (Ahotupa et al. 1997). The test for the t-BuOOH-LP was carried out as follows: The buffer (50 mM sodium carbonate, pH 10.2, with 0.1 mM EDTA) was pipetted in a volume of 0.8 ml in the luminometer cuvette. Twenty microliters of diluted liver microsomes, final concentration 1.5 mg protein/ml, was added, followed by […] of luminol (0.5 mg/ml) and test chemicals. The test compounds were added to incubation mixtures in a small volume diluted in ethanol or dimethylsulphoxide (2% of incubation volume), and the lipid peroxidation potency was compared to that of the vehicle (ethanol or dimethyl sulphoxide). The reaction was initiated by 0.05 ml of 0.9 mM t-BuOOH at 33° C. Chemiluminescence was measured for about 45 min at 1 min cycles, and the area under curve (integral) was calculated. Chemiluminescence measurements were carried out using a Bio-Orbit 1251 Luminometer (Bio-Orbit, Turku, Finland) connected to a personal computer using dedicated software for the assays.

[2] = Superoxide anion scavenging (xanthine-xanthine oxidase system, chemiluminescence); format: biochemical; details: read-out: Superoxide anion scavenging, IC-50
Description: Superoxide anion scavenging method was based on the superoxide anion produced in controlled conditions by xanthine-xanthine oxidase system and detection of the generated reactive oxygen species by luminometer (Ahotupa et al., 1997). The ability of test compounds to decrease the chemiluminescence was evaluated. IC-50 concentration (concentration which prevented the chemiluminescence by 50%) was calculated.

MCF-7 cells = test: Estrogenic and antiestrogenic activity in MCF-7 cell proliferation assay; format: cell-based, human; set-up: Estrogenic activity, cell proliferation: dose or concentration left out as unconfirmed; details: 5 to 7 days, FIG. 2
Description: The MCF-7 cell line (human breast cancer cells) stock cultures were grown in phenol red free RPMI medium supplemented with 5% FCS, 100 U/ml penicillin and 100 μg/ml streptomycin, 10 μg/ml insulin and 1 nM 17β-estradiol in T-75 cell culture bottles. The medium was replaced with fresh ones three times per week. The stock cultures were harvested by trypsinization and suspended in 10 ml phenol red free versene solution and cenitifuged for 5 min 800 rpm. The cell pellet was carefully resuspended into RPMI medium supplemented with 5% dextran charcoal stripped FCS (dcFCS) and seeded on 6 well plates 50 000 cells/3.0 ml medium/well. On the second day of culture the medium was changed and test compounds were added. To test the estrogenicity of the lignan compounds, they were diluted in ethanol and added to cell cultures in final concentration of […]. In each proliferation assay 1.0 nM 17β-estradiol solution in ethanol was used as a positive control for estrogenic response. Equal amounts of ethanol were added to control wells. To test the antiestrogenicity both 17β-estradiol and lignan solutions were added to cell cultures. The cells were cultured for 5 to 7 days in the presence of test compounds, and the medium was changed every second day. Cell proliferation was quantified by counting the released nuclei with Coulter counter.

[3] = Analysis of metabolites from rat urine after different doses of HMR (GC-MS); format: in vivo; details: 24 hour urine
Description: Ten Sprague—Dawley male rats (age 4 month) were used to study the metabolism of HMR in vivo. Animals were housed in pairs with 12 h light:dark cycle and had free access to water and soy-free basal diet (SDS, Whitham Essex, England) during the metabolism study.
Rats were cavaged with HMR dissolved in 10% ethanol in PEG in doses 3, 15, 25 and 50 mg/kg body weight once a day for two days. After second cavaging the 24 hour urine was collected in metabolic cages in collection jars containing 120 μl 0.56 M ascorbic acid and 120 μl 0.15 M Na-azide as preservatives. The centrifuged urine volumes were measured and stored in −20° C. For pretreatment 750 μl 0.2 M acetate buffer (pH 4.0±0.1) was added to 3.0 ml thawed urine aliquots. Sep-Pak C18 columns (100 mg silica based resin/column) were used for urine extractions. Columns were preconditioned with 3.0 ml H2O, 3.0 ml methanol and 3.0 ml acetate buffer. After urine had filtered through the column and washed with 3.0 ml of acetate buffer polyphenolics were eluted with 3.0 ml methanol. The eluate was evaporated to dryness under nitrogen in +45° C. water bath and dryed residues were redissolved in 3.0 ml of 0.2 M acetate buffer. 30 μl Helix pomatia enzyme mix was added and the solutions were incubated in +37° C. to hydrolyze both glucuronides and sulfates. 300 μl of flavone stock solution (100 μg/ml in EtOH) was added into hydrolyzed samples. The samples were extracted in C-18 columns and evaporated to dryness as described above and stored in −20° C. until analyzed with GC-MS.
The evaporated urine samples were dissolved in pyridine, and silylated by adding BSTFA:TMCS (10:1) silylation reagent. The GC-MS analyses of the silylated samples were performed with an HP 6890-5973 GC-MS instrument. The GC column was an HP-1 crosslinked methyl polysiloxane column (15 m×0.25 mm i.d., 0.25 μm film thickness). Helium was used as carrier gas at a flow of 1 ml/min. […] The quantitative calculations were based on uncorrected peak areas of target components relative to the internal standard.

COc1cc(CC2C(=O)OCC2C(O)c2ccc(O)c(OC)c2)ccc1O (centres unmarked) [HMR, hydroxymatairesinol]
IC50 ([1]; Table 3 comparison with known antioxidants, read-out: Inhibition of lipid peroxidation, IC-50): 0.06 µM
IC50 ([1]; lipid peroxidation inhibition test, rat liver microsomes, Table 2, read-out: Antioxidative capacity (t-BuOOH-LP) IC50): 0.08 µM
IC50 [2]: 5.6 µM
Estrogenic activity, cell proliferation (MCF-7 cells; MCF-7, lignan alone): very weak, not statistically significant
Antiestrogenic activity, cell proliferation (MCF-7 cells; MCF-7, lignan together with 17β-estradiol): very weak, not statistically significant
Main excreting metabolite in urine ([3]; male rats, 3, 15, 25 and 50 mg/kg once a day for two days, FIG. 5): enterolactone
Relation between doses of HMR and amounts of urinary enterolactone ([3]; male rats, 3 to 50 mg/kg): linear correlation
Unmetabolized HMR and other metabolites (enterodiol and 7-hydroxyenterolactone) found in urine ([3]; male rats, unchanged when daily dose increased): Only minute amounts
